Experimental data taken from PMC6858350, “A common mechanism allows selective targeting of GluN2B subunit-containing N-methyl-D-aspartate receptors” (Communications Biology, 2019).

Assays:
GluN1-1a WT/GluN2B Q110A [1] = target: T1, GluN1-1a WT/GluN2B Q110A (Rattus norvegicus, UniProt P35439+Q00960, Q110A); details: GluN2B Q110A; for A2 ± SE: flexible A2
GluN1-1a L135N/GluN2B WT [2] = target: T2, GluN1-1a L135N/GluN2B WT (Rattus norvegicus, UniProt P35439+Q00960, L135N); details: GluN1-1a L135N; for A2 ± SE: flexible A2
GluN1-1a WT/GluN2B I111A [3] = target: T3, GluN1-1a WT/GluN2B I111A (Rattus norvegicus, UniProt P35439+Q00960, I111A); details: GluN2B I111A; for A2 ± SE: flexible A2
GluN1-1a/GluN2D NMDAR = GluN1-1a/GluN2D NMDAR (Rattus norvegicus, UniProt P35439+Q62645); experiment: cell-based; details: read-out: ion current inhibition % ± SEM, GluN2D
GluN1-1a/GluN2C NMDAR = GluN1-1a/GluN2C NMDAR (Rattus norvegicus, UniProt P35439+Q00961); experiment: cell-based; details: read-out: ion current inhibition % ± SEM, GluN2C
GluN1-1a WT/GluN2B F176A [4] = target: T4, GluN1-1a WT/GluN2B F176A (Rattus norvegicus, UniProt P35439+Q00960, F176A); details: GluN2B F176A; for A2, fixed-to-wildtype (*): maximum inhibition fixed to wildtype value
GluN1-1a/GluN2A NMDAR = GluN1-1a/GluN2A NMDAR (Rattus norvegicus, UniProt P35439+Q00959); experiment: cell-based; details: read-out: ion current inhibition % ± SEM, GluN2A
GluN1-1a Y109S/GluN2B WT [5] = target: T5, GluN1-1a Y109S/GluN2B WT (Rattus norvegicus, UniProt P35439+Q00960, Y109S); details: GluN1-1a Y109S; for A2 ± SE: flexible A2
[6] = target: GluN1-1a/GluN2B NMDAR (wildtype) (Rattus norvegicus, UniProt P35439+Q00960); format: cell-based; details: for p (slope of the dose-response curve) / A2 ± SE (maximum inhibition from dose-response curve): −70 mV; for A2 ± SE (maximum inhibition from dose-response curve): flexible A2; for inhibition at 10 µM: read-out: ion current inhibition % ± SEM, GluN2B
GluN1-1a S132A/GluN2B WT [7] = target: T6, GluN1-1a S132A/GluN2B WT (Rattus norvegicus, UniProt P35439+Q00960, S132A); details: GluN1-1a S132A; for A2 ± SE: flexible A2
GluN1-1a WT/GluN2B E236A [8] = target: T7, GluN1-1a WT/GluN2B E236A (Rattus norvegicus, UniProt P35439+Q00960, E236A); details: GluN2B E236A; for A2 ± SE: flexible A2
GluN1-1a WT/GluN2B F114A [9] = target: T8, GluN1-1a WT/GluN2B F114A (Rattus norvegicus, UniProt P35439+Q00960, F114A); details: GluN2B F114A; for A2, fixed-to-wildtype (*): maximum inhibition fixed to wildtype value
[10] = test system: NMDA receptor-dependent EPSCs in CA1 pyramidal neurons; experiment: whole cell patch-clamp of evoked NMDAR-dependent EPSCs in hippocampal slices; format: cell-based, C57BL/6J mice; details: n = 5; for EPSC amplitude after washout, % of the initial baseline (SEM): washout of compound
GluN1-1a F113S/GluN2B WT [11] = target: T9, GluN1-1a F113S/GluN2B WT (Rattus norvegicus, UniProt P35439+Q00960, F113S); details: GluN1-1a F113S; for A2 ± SE: flexible A2
GluN1-1a WT/GluN2B F176Y [12] = target: T10, GluN1-1a WT/GluN2B F176Y (Rattus norvegicus, UniProt P35439+Q00960, F176Y); details: GluN2B F176Y; for A2, fixed-to-wildtype (*): maximum inhibition fixed to wildtype value
GluN1-1a F113S/GluN2B WT [13] = target: T9, GluN1-1a F113S/GluN2B WT; experiment: cell-based
GluN1-1a WT/GluN2B I111A [14] = target: T3, GluN1-1a WT/GluN2B I111A; experiment: cell-based
GluN1-1a WT/GluN2B F176A [15] = target: T4, GluN1-1a WT/GluN2B F176A; experiment: cell-based
GluN1-1a WT/GluN2B Q110A [16] = target: T1, GluN1-1a WT/GluN2B Q110A; experiment: cell-based
GluN1-1a Y109S/GluN2B WT [17] = target: T5, GluN1-1a Y109S/GluN2B WT; experiment: cell-based
GluN1-1a S132A/GluN2B WT [18] = target: T6, GluN1-1a S132A/GluN2B WT; experiment: cell-based
GluN1-1a L135N/GluN2B WT [19] = target: T2, GluN1-1a L135N/GluN2B WT; experiment: cell-based
GluN1-1a WT/GluN2B F114A [20] = target: T8, GluN1-1a WT/GluN2B F114A; experiment: cell-based
GluN1-1a WT/GluN2B E236A [21] = target: T7, GluN1-1a WT/GluN2B E236A; experiment: cell-based
GluN1-1a WT/GluN2B F176Y [22] = target: T10, GluN1-1a WT/GluN2B F176Y; experiment: cell-based

T3 sequence (Q00960 27-1482 I111A, other chains not shown): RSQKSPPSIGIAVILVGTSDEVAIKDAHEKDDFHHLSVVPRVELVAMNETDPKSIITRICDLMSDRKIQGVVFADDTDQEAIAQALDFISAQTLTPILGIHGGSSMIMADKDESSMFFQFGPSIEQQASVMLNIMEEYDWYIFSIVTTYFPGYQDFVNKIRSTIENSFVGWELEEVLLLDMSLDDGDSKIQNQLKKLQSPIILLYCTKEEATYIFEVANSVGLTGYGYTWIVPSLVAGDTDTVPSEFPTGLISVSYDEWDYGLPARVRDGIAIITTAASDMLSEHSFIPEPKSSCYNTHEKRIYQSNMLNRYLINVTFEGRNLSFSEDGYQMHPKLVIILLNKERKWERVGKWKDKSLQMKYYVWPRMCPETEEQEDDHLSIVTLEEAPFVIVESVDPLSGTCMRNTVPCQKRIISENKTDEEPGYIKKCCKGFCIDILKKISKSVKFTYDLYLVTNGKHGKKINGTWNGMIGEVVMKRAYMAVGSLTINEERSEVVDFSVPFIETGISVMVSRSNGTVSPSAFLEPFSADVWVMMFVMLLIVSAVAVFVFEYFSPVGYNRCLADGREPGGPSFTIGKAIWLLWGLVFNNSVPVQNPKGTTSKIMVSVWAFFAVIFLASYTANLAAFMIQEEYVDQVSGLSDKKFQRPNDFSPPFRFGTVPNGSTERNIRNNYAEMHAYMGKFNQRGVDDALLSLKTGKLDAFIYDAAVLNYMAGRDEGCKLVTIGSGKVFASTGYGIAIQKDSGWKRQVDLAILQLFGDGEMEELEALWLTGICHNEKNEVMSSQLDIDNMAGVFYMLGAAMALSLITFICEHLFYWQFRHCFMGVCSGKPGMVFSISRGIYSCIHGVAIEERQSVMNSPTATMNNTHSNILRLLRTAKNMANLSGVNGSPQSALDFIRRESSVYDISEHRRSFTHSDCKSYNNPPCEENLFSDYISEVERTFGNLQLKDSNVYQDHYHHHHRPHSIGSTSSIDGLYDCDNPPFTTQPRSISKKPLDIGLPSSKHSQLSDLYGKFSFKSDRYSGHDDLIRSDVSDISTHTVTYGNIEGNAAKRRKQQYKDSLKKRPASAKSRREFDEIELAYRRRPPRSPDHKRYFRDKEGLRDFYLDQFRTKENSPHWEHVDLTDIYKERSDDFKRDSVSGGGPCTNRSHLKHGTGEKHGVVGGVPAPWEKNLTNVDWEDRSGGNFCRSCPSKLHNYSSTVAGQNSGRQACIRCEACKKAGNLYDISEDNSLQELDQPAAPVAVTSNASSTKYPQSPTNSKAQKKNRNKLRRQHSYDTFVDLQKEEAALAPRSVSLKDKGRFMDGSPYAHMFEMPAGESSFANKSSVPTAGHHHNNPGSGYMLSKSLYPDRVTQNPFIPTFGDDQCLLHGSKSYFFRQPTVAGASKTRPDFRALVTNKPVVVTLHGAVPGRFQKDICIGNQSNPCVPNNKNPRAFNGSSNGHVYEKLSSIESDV
T10 sequence (Q00960 27-1482 F176Y, other chains not shown): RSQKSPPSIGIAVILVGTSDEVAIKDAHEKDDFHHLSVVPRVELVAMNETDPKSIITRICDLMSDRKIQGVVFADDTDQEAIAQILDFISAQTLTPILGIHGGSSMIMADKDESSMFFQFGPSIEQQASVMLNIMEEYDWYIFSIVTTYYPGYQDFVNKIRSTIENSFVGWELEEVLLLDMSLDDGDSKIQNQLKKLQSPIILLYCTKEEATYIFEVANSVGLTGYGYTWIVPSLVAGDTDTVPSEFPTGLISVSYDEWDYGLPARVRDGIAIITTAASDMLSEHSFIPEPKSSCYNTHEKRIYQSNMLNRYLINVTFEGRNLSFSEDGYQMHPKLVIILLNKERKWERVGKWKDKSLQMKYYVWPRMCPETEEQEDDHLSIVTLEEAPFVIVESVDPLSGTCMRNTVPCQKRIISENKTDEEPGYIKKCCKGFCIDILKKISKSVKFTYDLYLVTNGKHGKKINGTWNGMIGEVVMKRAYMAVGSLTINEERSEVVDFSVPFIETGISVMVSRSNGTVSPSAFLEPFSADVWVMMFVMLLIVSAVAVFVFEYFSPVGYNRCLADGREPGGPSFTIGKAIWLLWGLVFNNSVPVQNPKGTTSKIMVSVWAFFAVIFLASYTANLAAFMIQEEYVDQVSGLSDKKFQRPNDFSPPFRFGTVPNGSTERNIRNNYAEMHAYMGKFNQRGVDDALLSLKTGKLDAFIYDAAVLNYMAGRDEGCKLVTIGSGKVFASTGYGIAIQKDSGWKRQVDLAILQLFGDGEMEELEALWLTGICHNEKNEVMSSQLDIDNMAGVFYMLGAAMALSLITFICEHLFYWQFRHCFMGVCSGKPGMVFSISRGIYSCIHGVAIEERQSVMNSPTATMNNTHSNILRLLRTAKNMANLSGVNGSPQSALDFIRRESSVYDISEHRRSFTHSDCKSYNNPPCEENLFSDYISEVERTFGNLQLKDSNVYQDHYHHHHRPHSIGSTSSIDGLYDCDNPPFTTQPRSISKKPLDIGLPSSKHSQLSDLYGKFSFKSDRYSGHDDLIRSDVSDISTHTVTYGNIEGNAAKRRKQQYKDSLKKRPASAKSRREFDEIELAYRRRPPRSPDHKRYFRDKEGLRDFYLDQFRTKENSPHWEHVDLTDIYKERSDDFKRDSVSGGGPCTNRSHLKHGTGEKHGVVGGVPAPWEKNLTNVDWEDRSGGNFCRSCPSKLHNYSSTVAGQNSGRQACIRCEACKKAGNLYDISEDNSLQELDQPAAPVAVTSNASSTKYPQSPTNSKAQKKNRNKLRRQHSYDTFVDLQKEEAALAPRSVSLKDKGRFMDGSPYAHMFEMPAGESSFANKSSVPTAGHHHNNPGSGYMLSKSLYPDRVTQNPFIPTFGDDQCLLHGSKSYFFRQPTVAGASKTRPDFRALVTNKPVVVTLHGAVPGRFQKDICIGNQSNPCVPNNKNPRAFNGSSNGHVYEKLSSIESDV
T8 sequence (Q00960 27-1482 F114A, other chains not shown): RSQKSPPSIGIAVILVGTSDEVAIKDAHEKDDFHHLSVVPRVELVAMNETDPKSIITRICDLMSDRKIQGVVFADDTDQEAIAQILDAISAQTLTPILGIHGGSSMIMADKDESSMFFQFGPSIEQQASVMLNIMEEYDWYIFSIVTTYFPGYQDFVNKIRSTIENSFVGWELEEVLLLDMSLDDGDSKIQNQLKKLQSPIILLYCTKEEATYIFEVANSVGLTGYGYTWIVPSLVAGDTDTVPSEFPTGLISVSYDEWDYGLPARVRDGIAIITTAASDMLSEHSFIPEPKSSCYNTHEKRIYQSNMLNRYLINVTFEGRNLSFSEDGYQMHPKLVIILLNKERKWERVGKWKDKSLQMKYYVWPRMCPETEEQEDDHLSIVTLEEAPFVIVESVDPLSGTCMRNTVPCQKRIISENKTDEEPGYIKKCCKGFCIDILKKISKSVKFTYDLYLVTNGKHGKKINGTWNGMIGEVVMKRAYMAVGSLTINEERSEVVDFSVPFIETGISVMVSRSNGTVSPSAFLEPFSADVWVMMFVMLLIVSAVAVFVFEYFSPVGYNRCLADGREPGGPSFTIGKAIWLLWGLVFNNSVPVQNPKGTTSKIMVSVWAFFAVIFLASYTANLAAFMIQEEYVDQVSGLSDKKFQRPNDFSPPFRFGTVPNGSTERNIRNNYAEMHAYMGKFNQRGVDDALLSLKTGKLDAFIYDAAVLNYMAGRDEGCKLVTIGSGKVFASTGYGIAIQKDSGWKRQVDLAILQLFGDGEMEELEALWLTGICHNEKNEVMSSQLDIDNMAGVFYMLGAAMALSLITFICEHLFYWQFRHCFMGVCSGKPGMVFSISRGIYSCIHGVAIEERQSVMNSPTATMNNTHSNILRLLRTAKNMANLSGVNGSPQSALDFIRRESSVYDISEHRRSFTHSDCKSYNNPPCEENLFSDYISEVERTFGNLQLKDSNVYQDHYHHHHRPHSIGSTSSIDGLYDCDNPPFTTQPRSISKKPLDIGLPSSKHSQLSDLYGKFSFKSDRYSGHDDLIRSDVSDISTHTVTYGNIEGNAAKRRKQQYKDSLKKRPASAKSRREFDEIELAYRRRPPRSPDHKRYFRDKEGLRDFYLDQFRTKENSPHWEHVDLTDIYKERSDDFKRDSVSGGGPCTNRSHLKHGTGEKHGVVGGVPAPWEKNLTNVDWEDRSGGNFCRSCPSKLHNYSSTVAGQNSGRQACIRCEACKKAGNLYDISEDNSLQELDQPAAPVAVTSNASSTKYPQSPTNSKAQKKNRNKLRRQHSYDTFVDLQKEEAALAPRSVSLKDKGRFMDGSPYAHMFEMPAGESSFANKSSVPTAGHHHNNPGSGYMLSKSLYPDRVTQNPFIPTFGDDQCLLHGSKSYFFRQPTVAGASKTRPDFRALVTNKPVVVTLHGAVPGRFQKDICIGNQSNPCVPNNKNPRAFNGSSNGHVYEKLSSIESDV

Row | Structure (SMILES) | p (slope) (GluN1-1a WT/GluN2B Q110A [1]) | A2 ± SE (GluN1-1a WT/GluN2B Q110A [1]) [%] | p (slope) (GluN1-1a L135N/GluN2B WT [2]) | A2 ± SE (GluN1-1a L135N/GluN2B WT [2]) [%] | p (slope) (GluN1-1a WT/GluN2B I111A [3]) | A2 ± SE (GluN1-1a WT/GluN2B I111A [3]) [%] | inhibition at 10 µM (GluN1-1a/GluN2D NMDAR) [%] | inhibition at 10 µM (GluN1-1a/GluN2C NMDAR) [%] | p (slope) (GluN1-1a WT/GluN2B F176A [4]) | A2, fixed-to-wildtype (*) (GluN1-1a WT/GluN2B F176A [4]) [%] | inhibition at 10 µM (GluN1-1a/GluN2A NMDAR) [%] | p (slope) (GluN1-1a Y109S/GluN2B WT [5]) | A2 ± SE (GluN1-1a Y109S/GluN2B WT [5]) [%] | p (slope of the dose-response curve) ([6]; TEVC, wildtype) | A2 ± SE (maximum inhibition from dose-response curve) ([6]; TEVC, wildtype) [%] | inhibition at 10 µM [6] [%] | A2 ± SE (GluN1-1a S132A/GluN2B WT [7]) [%] | p (slope) (GluN1-1a WT/GluN2B E236A [8]) | A2 ± SE (GluN1-1a WT/GluN2B E236A [8]) [%] | p (slope) (GluN1-1a WT/GluN2B F114A [9]) | further results
1 | CC(C(O)c1ccc(O)cc1)N1CCC(Cc2ccccc2)CC1 (centres unmarked) [ifenprodil, reference compound] | 0.64 | 98 ± 5 | 0.99 | 76 ± 3 | 0.90 | 68 ± 7 | 24 ± 4 | 9 ± 1 | 0.87 | 94 | 5 ± 1 | 0.88 | 74 ± 2 | 0.97 | 94 ± 2 | 91 ± 1 | 89 ± 3 | 1.18 | 88 ± 5 | 0.63 | p (slope) (GluN1-1a S132A/GluN2B WT [7]): 0.79; A2, fixed-to-wildtype (*) (GluN1-1a WT/GluN2B F114A [9]): 94%; EPSC amplitude, % of the initial baseline (SEM) ([10]; 1 µM compound): 74.4 ± 8.9%; EPSC amplitude, % of the initial baseline (SEM) ([10]; 6 µM compound): 22.7 ± 4.7%; EPSC amplitude after washout, % of the initial baseline (SEM) [10]: 31.9 ± 5%; p (slope) (GluN1-1a F113S/GluN2B WT [11]): 1.09; A2 ± SE (GluN1-1a F113S/GluN2B WT [11]): 72 ± 3%; p (slope) (GluN1-1a WT/GluN2B F176Y [12]): 0.57; A2, fixed-to-wildtype (*) (GluN1-1a WT/GluN2B F176Y [12]): 94%
2 | Oc1ccc2c(c1)CCN(CCCCc1ccccc1)C[C@@H]2O [compound (R)-1] | 2.18 | 91 ± 1 | 0.66 | 72 ± 3 | 0.92 | 66 ± 3 | 18 ± 3 | 8 ± 1 | 0.40 | 93 | 4 ± 1 | 1.42 | 92 ± 2 | 1.11 | 93 ± 1 | 95 ± 1 | 92 ± 2 | 1.32 | 85 ± 1 | 1.35 | IC50 (GluN1-1a F113S/GluN2B WT [13]): 117 ± 48 nM; IC50 (GluN1-1a WT/GluN2B I111A [14]): 137 ± 31 nM; IC50 ([6]; TEVC, holding potential −70 mV, 10 µM glycine and 10 µM (S)-glutamate, wildtype, read-out: IC50 ± SE): 53 ± 3 nM; IC50 (GluN1-1a WT/GluN2B F176A [15]): 105000 ± 41000 nM; A2, fixed-to-wildtype (*) (GluN1-1a WT/GluN2B F114A [9]): 93%; EPSC amplitude, % of the initial baseline (SEM) ([10]; 2 µM compound): 60.2 ± 2.8%; EPSC amplitude, % of the initial baseline (SEM) ([10]; 7 µM compound): 13.8 ± 1.4%; EPSC amplitude after washout, % of the initial baseline (SEM) [10]: 30.9 ± 3.6%; IC50 (GluN1-1a WT/GluN2B Q110A [16]): 393 ± 24 nM; IC50 (GluN1-1a Y109S/GluN2B WT [17]): 20 ± 2 nM; p (slope) (GluN1-1a F113S/GluN2B WT [11]): 0.50; A2 ± SE (GluN1-1a F113S/GluN2B WT [11]): 77 ± 5%; IC50 (GluN1-1a S132A/GluN2B WT [18]): 106 ± 14 nM; p (slope) (GluN1-1a WT/GluN2B F176Y [12]): 0.82; A2, fixed-to-wildtype (*) (GluN1-1a WT/GluN2B F176Y [12]): 93%; IC50 (GluN1-1a L135N/GluN2B WT [19]): 293 ± 74 nM; IC50 (GluN1-1a WT/GluN2B F114A [20]): 4080 ± 423 nM; IC50 (GluN1-1a WT/GluN2B E236A [21]): 194 ± 30 nM; IC50 (GluN1-1a WT/GluN2B F176Y [22]): 107 ± 20 nM
